Source: patent US12365687B2 (Hoffmann-La Roche Inc., priority 2021, dated 2025)
pKi: −log10 of the molar value.

Columns and labels:
[1] = molecular target: human GABAA α1β2γ1 receptor (Homo sapiens (Human), UniProt P14867+Q8N1C3); assay: Radioligand binding assay for γ1-containing GABAA subtypes, [3H]RO7239181 competition (α1β2γ1)
Method: The affinity of compounds at GABAA γ1 subunit-containing receptors was measured by competition for [^3H]RO7239181 (67.3 Ci/mmol; Roche) binding to membranes from HEK293F cells (ThermoFisher R79007) expressing human (transiently transfected) receptors of composition α5β2γ1, α2β2γ1, α1β2γ1.
Harvested pellets from HEK293F cells expressing the different GABAA receptor subtypes were resuspended in Mannitol Buffer pH 7.2-7.4 (Mannitol 0.29 M, Triethylamine 10 mM, Acetic acid 10 mM, EDTA 1 mM plus protease inhibitors (20 tablets Complete, Roche Diagnostics Cat. No. 05 056 489 001 per liter)), washed two times and then resuspended at 1:10 to 1:15 dilution in the same buffer. Cell disruption was performed by stirring the suspension in a Parr vessel #4637 at 435 psi for 15 minutes, and then the suspensions were centrifuged at 1000×g for 15 minutes at 4° C. (Beckman Avanti J-HC; rotor JS-4.2). The supernatant (S1) was transferred in a 2 l Schott flask and the pellet (P1) was resuspended with Mannitol Buffer up to 175 ml. The resuspended pellet was transferred into a 250 ml Corning centrifugal beaker and centrifuged at 1500×g for 10 minutes at 4° C. (Beckman Avanti J-HC; rotor JS-4.2). The supernatant (S1) was then transferred in the 2 l Schott flask and the pellet was discarded. The supernatants (S1) were centrifuged in 500 ml Beckman polypropylene centrifugal beaker at 15′000×g for 30 minutes at 4° C. (Beckman Avanti J-20 XP; rotor JLA-10.500). The pellet (P2) was resuspended with Mannitol Buffer 1:1 and frozen at −80° C. The supernatant (S2) was centrifuged in 100 ml Beckman polypropylene centrifugal tubes at 48000×g for 50 minutes at 4° C. (Beckman Avanti J-20 XP; rotor JA-18). The supernatant (S3) was discarded and the pellet (P3) was resuspended with 1:1 Mannitol Buffer. The P2 and P3 protein concentration was determined with the BIORAD Standard assay method with bovine serum albumin as standard and measured on the NANO-Drop 1000. The membrane suspension was aliquots (500 μl per tube) and stored at −80° C. until required.
Membrane homogenates were resuspended and polytronised (Polytron PT1200E Kinematica AG) in Potassium Phosphate 10 mM, KCl 100 mM binding buffer at pH 7.4 to a final assay concentration determined with a previous experiment.
Assays were incubated to equilibrium for 1 hour at 4° C. and then, membranes were filtered onto unifilter (96-well white microplate with bonded GF/C filters preincubated 20-50 minutes in 0.3% Polyethylenimine) with a Filtermate 196 harvester (Packard BioScience) and washed 4 times with cold Potassium Phosphate 10 mM pH 7.4, KCl 100 mM binding buffer. After anhydrousing, filter-retained radioactivity was detected by liquid scintillation counting. Ki values were calculated using Excel-Fit (Microsoft) and are the means of two determinations.

[2] = molecular target: human GABAA α2β2γ1 receptor (Homo sapiens (Human), UniProt P47869+Q8N1C3); assay: Radioligand binding assay for γ1-containing GABAA subtypes, [3H]RO7239181 competition (α2β2γ1)
[3] = molecular target: human GABAA α1β3γ2 receptor (Homo sapiens (Human), UniProt P14867+P18507); assay: Radioligand binding assay for γ2-containing GABAA subtypes, [3H]Flumazenil competition (α1β3γ2); conditions: for γ2/γ1 Selectivity Ratio: Ki α1β3γ2 (nM)/Ki α2β2γ1 (nM); for LogSel: Log[Ki α1β3γ2 (nM)/Ki α2β2γ1 (nM)]
[4] = molecular target: human GABAA α5β2γ1 receptor (Homo sapiens (Human), UniProt P31644+Q8N1C3); assay: Radioligand binding assay for γ1-containing GABAA subtypes, [3H]RO7239181 competition (α5β2γ1)
[5] = molecular target: α2β2γ1 GABAA receptor subtype (Homo sapiens (Human), UniProt P47869+Q8N1C3); assay: Two-electrode voltage clamp electrophysiology in Xenopus oocytes expressing GABAA receptors (modulation of GABA EC20 current); format: cell-based; conditions: for Efficacy (GABA)%: % modulation of GABA EC20 = 100*(Fold increase-1), α2β2γ1 oocytes, compound at approx. 30-fold Ki; for Fold increase h-GABA-A α2β2γ1 oocyte @ 30-fold Ki: Xenopus oocytes expressing α2β2γ1, compound at approx. 30-fold its Ki α2β2γ1, GABA EC20 current
How it was run: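 Each concentration was tested on ≥3 oocytes held at −80 mV at room temperature, recorded 3-5 days post-injection. A control and a test response to EC20 GABA (1.5 min each) were superimposed and their point-by-point ratio taken. Peak ratio reported as % modulation of GABA EC20 = 100×(fold increase−1).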

[6] = Ki h-GABAA α2β2γ1, [3H]RO7239181 competition binding, human GABAA α2β2γ1
[7] = Ki h-GABAA α2β2γ1, displacement of [3H]RO7239181, membranes of HEK293F cells expressing human receptors, means of two determinations

Compound: COC1CN(C(=O)c2nc3n(n2)-c2ccc(C(F)(F)F)c(Cl)c2C(c2ncccc2F)=N[C@H]3C)C1 [Example 103, [(4S)-7-chloro-6-(3-fluoro-2-pyridyl)-4-methyl-8-(trifluoromethyl)-4H-[1,2,4]triazolo[1,5-a][1,4]benzodiazepin-2-yl]-(3-methoxyazetidin-1-yl)methanone]
- pKi [1]: 6.75
- pKi [2, 6]: 7.60
- pKi [2, 7]: 7.60
- pKi [3]: < 4.52
- γ2/γ1 Selectivity Ratio [3]: 1183.4
- LogSel [3]: 3.07
- pKi [4]: 8.01
- Efficacy (GABA)% [5]: 113%
- Fold increase h-GABA-A α2β2γ1 oocyte @ 30-fold Ki [5]: 2.13

Compound: C[C@H](O)CNC(=O)c1nc2n(n1)-c1ccc(C(F)(F)F)c(Cl)c1C(c1c(F)cccc1F)=N[C@H]2C [Example 109, (4S)-7-chloro-6-(2,6-difluorophenyl)-N-[(2S)-2-hydroxypropyl]-4-methyl-8-(trifluoromethyl)-4H-[1,2,4]triazolo[1,5-a][1,4]benzodiazepine-2-carboxamide]
- pKi [1]: 7.39
- pKi [2, 6]: 7.92
- pKi [2, 7]: 7.92
- pKi [3]: 5.51
- γ2/γ1 Selectivity Ratio [3]: 258.7
- LogSel [3]: 2.41
- pKi [4]: 8.51
- Efficacy (GABA)% [5]: 126%
- Fold increase h-GABA-A α2β2γ1 oocyte @ 30-fold Ki [5]: 2.26

Compound: Cc1nc2n(n1)-c1ccc(Cl)c(Cl)c1C(c1c(F)cccc1F)=N[C@H]2C [Example 21, (4S)-7,8-dichloro-6-(2,6-difluorophenyl)-2,4-dimethyl-4H-[1,2,4]triazolo[1,5-a][1,4]benzodiazepine]
- pKi [1]: 8.08
- pKi [2, 6]: 8.36
- pKi [2, 7]: 8.35
- pKi [3]: 6.61
- γ2/γ1 Selectivity Ratio [3]: 55.0
- LogSel [3]: 1.74
- pKi [4]: 9.16
- Efficacy (GABA)% [5]: 67%
- Fold increase h-GABA-A α2β2γ1 oocyte @ 30-fold Ki [5]: 1.67

Compound: C[C@@H]1N=C(c2c(F)cccc2F)c2c(ccc(C(F)(F)F)c2Cl)-n2nc(C(=O)N3CCS(=O)(=O)CC3)nc21 [Example 114, [(4S)-7-chloro-6-(2,6-difluorophenyl)-4-methyl-8-(trifluoromethyl)-4H-[1,2,4]triazolo[1,5-a][1,4]benzodiazepin-2-yl]-(1,1-dioxo-1,4-thiazinan-4-yl)methanone]
- pKi [1]: 7.63
- pKi [2, 6]: 8.02
- pKi [2, 7]: 8.02
- pKi [3]: 5.51
- γ2/γ1 Selectivity Ratio [3]: 325.5
- LogSel [3]: 2.51
- pKi [4]: 8.43
- Efficacy (GABA)% [5]: 88%
- Fold increase h-GABA-A α2β2γ1 oocyte @ 30-fold Ki [5]: 1.88

Compound: C[C@@H]1N=C(c2c(F)cccc2F)c2c(ccc(C(F)(F)F)c2Cl)-n2nc(C(=O)NCCF)nc21 [Example 106, (4S)-7-chloro-6-(2,6-difluorophenyl)-N-(2-fluoroethyl)-4-methyl-8-(trifluoromethyl)-4H-[1,2,4]triazolo[1,5-a][1,4]benzodiazepine-2-carboxamide]
- pKi [1]: 6.98
- pKi [2, 6]: 7.65
- pKi [2, 7]: 7.65
- pKi [3]: 5.38
- γ2/γ1 Selectivity Ratio [3]: 185.1
- LogSel [3]: 2.27
- pKi [4]: 8.53
- Efficacy (GABA)% [5]: 90%
- Fold increase h-GABA-A α2β2γ1 oocyte @ 30-fold Ki [5]: 1.90

Compound: COC1CN(C(=O)c2nc3n(n2)-c2ccc(C(F)(F)F)c(Cl)c2C(c2c(F)cccc2F)=N[C@H]3C)C1 [Example 23]
- pKi [1]: 7.54
- pKi [2, 6]: 7.93
- pKi [2, 7]: 7.93
- pKi [3]: 5.94
- γ2/γ1 Selectivity Ratio [3]: 96.8
- pKi [4]: 8.79
- Efficacy (GABA)% [5]: 63%

Compound: C[C@@H]1N=C(c2ncccc2F)c2c(ccc(C(F)(F)F)c2Cl)-n2cc(C(=O)NCC(C)(C)O)nc21 [Example 159, (4S)-7-chloro-6-(3-fluoro-2-pyridyl)-N-(2-hydroxy-2-methyl-propyl)-4-methyl-8-(trifluoromethyl)-4H-imidazo[1,2-a][1,4]benzodiazepine-2-carboxamide]
- pKi [1]: 7.15
- pKi [2, 6]: 7.37
- pKi [2, 7]: 7.37
- pKi [3]: 5.08
- γ2/γ1 Selectivity Ratio [3]: 195.6
- LogSel [3]: 2.29
- pKi [4]: 7.94
- Efficacy (GABA)% [5]: 217%
- Fold increase h-GABA-A α2β2γ1 oocyte @ 30-fold Ki [5]: 3.17

Compound: COC1CN(C(=O)c2cn3c(n2)CN=C(c2ccccc2F)c2c-3ccc(Cl)c2Cl)C1 [Example 1, (7,8-dichloro-6-(2-fluorophenyl)-4H-benzo[f]imidazo[1,2-a][1,4]diazepin-2-yl)(3-methoxyazetidin-1-yl)methanone]
- pKi [1]: 7.45
- pKi [2, 6]: 7.60
- pKi [2, 7]: 7.60
- pKi [3]: 6.20
- γ2/γ1 Selectivity Ratio [3]: 25.5
- LogSel [3]: 1.41
- pKi [4]: 8.50
- Efficacy (GABA)% [5]: 77%
- Fold increase h-GABA-A α2β2γ1 oocyte @ 30-fold Ki [5]: 1.77

Compound: C[C@@H]1N=C(c2ncccc2F)c2c(ccc(C(F)(F)F)c2Cl)-n2nc(C(=O)N3CCC3)nc21 [Example 85, azetidin-1-yl-[(4S)-7-chloro-6-(3-fluoro-2-pyridyl)-4-methyl-8-(trifluoromethyl)-4H-[1,2,4]triazolo[1,5-a][1,4]benzodiazepin-2-yl]methanone]
- pKi [1]: 6.65
- pKi [2, 6]: 7.22
- pKi [2, 7]: 7.22
- pKi [3]: 5.05
- γ2/γ1 Selectivity Ratio [3]: 145.5
- LogSel [3]: 2.16
- pKi [4]: 8.07
- Efficacy (GABA)% [5]: 140%
- Fold increase h-GABA-A α2β2γ1 oocyte @ 30-fold Ki [5]: 2.40

Compound: CNC(=O)Nc1nc2n(n1)-c1ccc(C(F)(F)F)c(Cl)c1C(c1c(F)cccc1F)=N[C@H]2C [Example 129, 1-[(4S)-7-chloro-6-(2,6-difluorophenyl)-4-methyl-8-(trifluoromethyl)-4H-[1,2,4]triazolo[1,5-a][1,4]benzodiazepin-2-yl]-3-methyl-urea]
- pKi [1]: 7.30
- pKi [2, 6]: 8.22
- pKi [2, 7]: 8.22
- pKi [3]: 5.47
- γ2/γ1 Selectivity Ratio [3]: 558.0
- LogSel [3]: 2.75
- pKi [4]: 8.80
- Efficacy (GABA)% [5]: 36%
- Fold increase h-GABA-A α2β2γ1 oocyte @ 30-fold Ki [5]: 1.36

Compound: C[C@@H]1N=C(c2c(F)cccc2F)c2c(ccc(C(F)(F)F)c2Cl)-n2nc(C(=O)N3CCC3)nc21 [Example 26, azetidin-1-yl-[(4S)-7-chloro-6-(2,6-difluorophenyl)-4-methyl-8-(trifluoromethyl)-4H-[1,2,4]triazolo[1,5-a][1,4]benzodiazepin-2-yl]methanone]
- pKi [1]: 7.42
- pKi [2, 6]: 8.07
- pKi [2, 7]: 8.07
- pKi [3]: 5.74
- γ2/γ1 Selectivity Ratio [3]: 213.1
- LogSel [3]: 2.33
- pKi [4]: 8.61
- Efficacy (GABA)% [5]: 75%
- Fold increase h-GABA-A α2β2γ1 oocyte @ 30-fold Ki [5]: 1.75

Compound: C[C@@H]1N=C(c2c(F)cccc2F)c2c(ccc(Cl)c2Cl)-n2nc(C(=O)N3CCC3)nc21 [Example 14, azetidin-1-yl-[(4S)-7,8-dichloro-6-(2,6-difluorophenyl)-4-methyl-4H-[1,2,4]triazolo[1,5-a][1,4]benzodiazepin-2-yl]methanone]
- pKi [1]: 8.07
- pKi [2, 6]: 8.15
- pKi [2, 7]: 8.15
- pKi [3]: 6.11
- γ2/γ1 Selectivity Ratio [3]: 108.2
- LogSel [3]: 2.03
- pKi [4]: 8.95
- Efficacy (GABA)% [5]: 57%
- Fold increase h-GABA-A α2β2γ1 oocyte @ 30-fold Ki [5]: 1.57
